How the values were obtained:
[1] = target: T1, GK from Bacillus stearothermophilus (Geobacillus stearothermophilus, UniProt A0ACH1EBP7); experiment: Comparative investigation of inhibitors, reaction rate ΔE/min (Table 1); assay type: biochemical; settings: sample glycerol 6 mMole/liter, 1:100, 25° C., 546 nm
T1 construct: coupled glycerol phosphate oxidase/peroxidase test
Method: (§1) Comparative investigation of various inhibitors according to the present invention with GK of varying origin: […]
(§2) tris/HCl 0.1 mole/litre, pH 7.6
(§3) glycerol phosphate oxidase
(§4) glycerol kinase 2.0 U/ml.
(§5) magnesium sulphate heptahydrate
(§6) 4-chlorophenol 3.5 mMole/litre
(§7) 4-aminoantipyrine 0.35 mMole/litre
(§8) Sample: aqueous glycerol solution 6 mMole/liter sample/reagent ratio 1:100 (20 μl./2 ml.)
(§9) measurement wavelength 546 nm. (ΔE/min. in each case read off from the linear region)

GK from Escherichia coli = GK from Escherichia coli (Escherichia coli, UniProt P0A6F3); experiment: Comparative investigation of inhibitors, reaction rate ΔE/min (Table 2); assay type: biochemical; settings: sample glycerol 6 mMole/liter, 1:100, 25° C., 546 nm
Chain of GK from Escherichia coli (P0A6F3 whole entry): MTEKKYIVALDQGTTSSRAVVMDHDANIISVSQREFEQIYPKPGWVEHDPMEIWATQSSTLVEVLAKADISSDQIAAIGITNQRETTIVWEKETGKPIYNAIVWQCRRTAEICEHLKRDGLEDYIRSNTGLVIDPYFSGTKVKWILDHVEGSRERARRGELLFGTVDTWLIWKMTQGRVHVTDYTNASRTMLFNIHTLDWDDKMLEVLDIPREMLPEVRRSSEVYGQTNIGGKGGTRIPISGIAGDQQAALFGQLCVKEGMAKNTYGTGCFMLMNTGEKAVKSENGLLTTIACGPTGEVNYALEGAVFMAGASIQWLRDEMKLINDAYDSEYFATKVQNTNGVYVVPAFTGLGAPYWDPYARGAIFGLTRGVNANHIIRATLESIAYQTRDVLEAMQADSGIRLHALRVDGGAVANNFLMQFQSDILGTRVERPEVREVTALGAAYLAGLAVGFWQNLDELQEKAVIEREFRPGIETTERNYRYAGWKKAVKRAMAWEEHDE
Method: as §1, §2, §3, §4, §5, §6, §7, §8, §9

T1 sequence (A0ACH1EBP7 1-496): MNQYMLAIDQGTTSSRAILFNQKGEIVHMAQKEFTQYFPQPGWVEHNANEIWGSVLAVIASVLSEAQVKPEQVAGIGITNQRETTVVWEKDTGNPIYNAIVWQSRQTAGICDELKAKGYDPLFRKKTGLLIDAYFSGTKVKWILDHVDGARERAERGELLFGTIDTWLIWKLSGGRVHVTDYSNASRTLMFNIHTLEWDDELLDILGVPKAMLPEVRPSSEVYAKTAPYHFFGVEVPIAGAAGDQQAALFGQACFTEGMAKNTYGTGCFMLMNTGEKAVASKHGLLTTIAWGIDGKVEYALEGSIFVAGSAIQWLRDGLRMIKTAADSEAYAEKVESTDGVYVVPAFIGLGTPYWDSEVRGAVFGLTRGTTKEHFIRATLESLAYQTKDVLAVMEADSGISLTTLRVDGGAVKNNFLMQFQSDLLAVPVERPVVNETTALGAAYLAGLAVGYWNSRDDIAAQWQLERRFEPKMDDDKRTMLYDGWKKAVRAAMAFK

Compound	ΔE/min ([1]; inhibitor 10 mMol/l) [min⁻¹]	ΔE/min ([1]; inhibitor 20 mMol/l) [min⁻¹]	ΔE/min ([1]; inhibitor 50 mMol/l) [min⁻¹]	ΔE/min ([1]; inhibitor 100 mMol/l) [min⁻¹]	ΔE/min (GK from Escherichia coli; inhibitor 20 mMol/l) [min⁻¹]	ΔE/min (GK from Escherichia coli; inhibitor 50 mMol/l) [min⁻¹]	ΔE/min (GK from Escherichia coli; inhibitor 100 mMol/l) [min⁻¹]	ΔE/min (GK from Escherichia coli; inhibitor 150 mMol/l) [min⁻¹]	ΔE/min ([1]; inhibitor 2 mMol/l) [min⁻¹]	ΔE/min ([1]; inhibitor 5 mMol/l) [min⁻¹]	ΔE/min (GK from Escherichia coli; inhibitor 5 mMol/l) [min⁻¹]	ΔE/min (GK from Escherichia coli; inhibitor 10 mMol/l) [min⁻¹]
O=C[C@@H](O)[C@H](O)[C@H](O)CO [D-arabinose]	0.426	0.349	0.249	0.121	0.363	0.302	0.231	0.167	–	–	–	–
C[C@H](O)[C@@H](O)[C@@H](O)[C@H](O)C=O [L-fucose]	0.230	0.153	0.077	0.039	0.352	0.286	0.209	0.142	–	–	–	–
O=C[C@@H](O)[C@H](O)[C@@H](O)CO [L-xylose]	0.105	0.062	–	–	0.118	0.072	–	–	0.320	0.188	0.228	0.169

— patent US4705749A, “Process and reagent for the determination of glycerol with the use of glycerol kinase” (Boehringer Mannheim GmbH, priority 1983, dated 1987)
